Patent US9012420B2, “Aptamer for chymase, and use thereof” (Ribomic Inc., priority 2009, dated 2015)
Each block holds one molecule with its values, some of them ahead of it. Oligonucleotides are written 5' to 3', each unit as a sugar letter and its base; * is a phosphorothioate linkage, no mark a phosphodiester; rarer units and linkages stand in square brackets, end groups in braces. Plain capitals give the bases only. r = 2'-OH (RNA); f = 2'-fluoro

Target: T1, chymase (recombinant, manufactured by SIGMA) (Homo sapiens, UniProt P23946)
T1 construct: purchased SIGMA; host or cells: yeast
T1 sequence (P23946 22-247): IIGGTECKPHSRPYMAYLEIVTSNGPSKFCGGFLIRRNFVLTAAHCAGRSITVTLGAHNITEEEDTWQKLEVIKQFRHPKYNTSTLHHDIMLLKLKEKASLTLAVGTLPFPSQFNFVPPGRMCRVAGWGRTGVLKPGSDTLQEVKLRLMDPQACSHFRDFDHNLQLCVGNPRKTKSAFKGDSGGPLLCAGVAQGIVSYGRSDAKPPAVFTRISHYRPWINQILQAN
Assay: Chymase inhibitory activity using synthetic substrate Suc-Ala-Ala-Pro-Phe-MCA
Assay type: biochemical
Procedure, shortened: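 Human recombinant chymase (16.7 nM or 1.67 nM final) preincubated 5 min at 37° C., then added to nucleic acid (0.0027–2 μM serial dilutions) and 100 μM substrate in solution C. AMC fluorescence (ex 380/em 460 nm) followed 5 or 30 min at 37° C.; slope gives initial velocity, inhibition versus no-inhibitor control yields IC50.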

[1] = Table 4, same manner as Example 3, mean value for 2 to 3 measurements
[2] = Table 6, same manner as Example 3, mean value of two measurements
[3] = Table 5, same manner as Example 3, mean value of two measurements
[4] = Table 7, same manner as Example 3, mean value of two measurements
[5] = Table 3, substrate 100 μM, solution C, 37° C., mean value for 2 to 3 measurements

Molecule: 53 (GGGUAACUAUGGUUAGAUAGAGUUAAAAACCAUAGAAGACCC; 2'-fluoro at CU, RNA at AG, backbone not given here) [compound 53]
IC50 [1]: 66 ± 24 nM

Molecule: 54 (UAACUAUGGUUAGAUAGAGUUAAAAACCAUAGAAGA; 2'-fluoro at CU, RNA at AG, backbone not given here) [compound 54]
IC50 [1]: 51 ± 33 nM

Molecule: 55 (CUAUGGUUAGAUAGAGUUAAAAACCAUAG; 2'-fluoro at CU, RNA at AG, backbone not given here) [compound 55]
IC50 [1]: 55 ± 23 nM

Molecule: 56 (GGGUUAGAUAGAGUUAAAAACCC; 2'-fluoro at CU, RNA at AG, backbone not given here) [compound 56]
IC50 [1]: 46 ± 31 nM
IC50 [2]: 27 ± 2 nM

Molecule: 58 (GGGUUGAAGAUAUUAAAGAACCC; 2'-fluoro at CU, RNA at AG, backbone not given here) [compound 58]
IC50 [3]: > 1000 nM

Molecule: 65 (rGrGfCrArGrAfUrArGrArGfUfUrArArArGfCfC) [compound 65]
IC50 [3]: 56 ± 46 nM

Molecule: 70 (GGGTTAGAUAGAGUUAAAAACCC; chemistry not given here) [compound 70]
IC50 [4]: 27 ± 4 nM

Molecule: 71 (GGGUUAGAUAGAGTUAAAAACCC; chemistry not given here) [compound 71]
IC50 [4]: 28 ± 5 nM

Molecule: 72 (GGGTTAGAUAGAGTUAAAAACCC; chemistry not given here) [compound 72]
IC50 [4]: 20 ± 2 nM

IC50 [5]: 100 to 200 nM
Molecule: CC(C)C[C@H](NC(=O)[C@@H](NC(=O)N[C@@H](Cc1ccccc1)C(=O)O)[C@@H]1CCN=C(N)N1)C(=O)N[C@H](C=O)Cc1ccccc1 [chymostatin, reference compound]

Molecule: GGGU(F)U(F)GAAGAU(F)AU(F)U(F)AAAGAAC(F)C(F)C(F) (GGGUUGAAGAUAUUAAAGAACCC; 2'-fluoro at CU, RNA at AG, backbone not given here) [SEQ ID NO: 58]
IC50 [3]: > 1000 nM
IC50 [2]: > 1000 nM
IC50 [4]: > 1000 nM

B1: 13 (nucleic acid)
chain: rGrGrGrAfCrGrGfUrArGrGrArAfUfUfCfCrGfCrArAfCfCrAfUfCfCfCrGfUrArAfCfUrAfUrGrGfUfUrArGrAfUrArGrArGfUfUrArArArArAfCfCrAfUrArGrArArGrArGfCrGrGfCfCrGfC
modifications: aptamer
IC50 [5]: 58 ± 24 nM

B2: 14 (nucleic acid)
chain: rGrGrGrAfCrGrGfUrArGrGrArAfUfUfCfUfCrGfUfUfCfCfUrGrAfCrArGfCrAfUfUfUrGrArGrAfUrArGrAfUfUfUrArArAfCrArArAfCrGfCrAfCrAfUrArGrArArGrArGfCrGrGfCfCrGfC
modifications: aptamer
IC50 [5]: 61 ± 53 nM

B3: 4 (nucleic acid)
chain: rGrGrGrAfCrGrGfUrArGrGrArAfUfUfCrGfUfCfCrAfUfUfCfUrAfCrArGrAfUrArGrArGrAfUrArArArGfUrArGrArAfUfUfUrArAfCrArArArAfCrAfUrArGrArArGrArGfCrGrGfCfCrGfC
modifications: aptamer
IC50 [5]: 49 ± 3 nM
